The text below walks through data of patent US8728797B2, “Yeast membrane protein expression system and its application in drug screening” (priority 2001, dated 2014).

One experiment concerns S. cerevisiae AD1-8u^−. As to the kind of experiment: MIC microdilution test, parental strain. Format: cell-based. The conditions noted are these: Saccharomyces cerevisiae; AD1-8u^− parental strain; 30° C., 48 h, pH 7.0. The protocol: (§1) The MICs of antifungal agents for S. cerevisiae cells were determined by a microdilution test based on the macrodilution reference method of the National Committee for Clinical Laboratory Standards. Cells (10 μl cell suspension, 2×10^5 cells/ml) were inoculated into 90 μl CSM-URA, buffered with 10 mM 2-(N-morpholino)ethanesulfonic acid (MES) and 18 mM N-2-hydroxyethylpiperazine-N′-2-ethanesulfonic acid (HEPES), pH 7.0 and containing 0.67% (w/v) yeast nitrogen base (YNB) in microtitre plate wells. For the uracil-requiring strain AD1-8u^− the medium was supplemented with 0.02% (w/v) uridine. The wells contained, in […], doubling dilutions of antifungal agents (final concentrations: fluconazole, 40-0.078 μg/ml; itraconazole and ketoconazole, 8-0.016 μg/ml). The microtitre plates were incubated at 30° C. for 48 h with shaking and then the growth of cells in individual wells (OD590) was measured with a microplate reader (EL 340, Bio-Tek, Winooski, Vt.). The MIC80 was the lowest concentration of drug that inhibited growth yield by at least 80% compared to a no-drug control.
(In general: Broth dilution looks for growth in wells or tubes with falling amounts of substance.)

Experiment [1] deals with S. cerevisiae AD1002 expressing C. albicans Cdr1p. Kind of experiment: MIC microdilution test, strain expressing Cdr1p. Format: cell-based. Conditions: for MIC80: AD1002 expressing Cdr1p, 30° C., 48 h, pH 7.0; for fold increase in MIC: AD1002 relative to parental AD1-8u^−. Here is the method:
as §1

The next experiment has as its system S. cerevisiae AD1-8/CDR2. As to the kind of experiment: MIC microdilution test, strain expressing Cdr2p. Type of experiment: cell-based. The conditions noted are these: Saccharomyces cerevisiae, AD18/CDR2, 30° C. The protocol: as §1
For experiment [2], the system named is AD124567 (Pdr5p-overexpressing). As to the kind of experiment: Disk drug susceptibility assay of chemosensitisation to fluconazole. The conditions noted are these: 120 μg/ml fluconazole, 47 nanomole peptide on disk. Type of experiment: cell-based, S. cerevisiae. The protocol:
(A) Checkerboard drug susceptibility assay of AD124567 in the presence of the indicated concentrations of fluconazole and KN20. (B) Disk drug susceptibility assay of AD124567. This assay was conducted, as described in Materials and methods for example 4, in the absence or presence of fluconazole (120 μg/ml), and in the presence of (1) KN0 (47 nanomole), (2) KN20 (47 nanomole) or (0) control amounts of DMSO applied to disks
(§2) Drug susceptibility was measured using disk assays on CSM-URA plates (containing 1.5% w/v agar). Plates were seeded with yeast cells suspended in top agar (5 ml, 10^5 cells/ml). For the uracil-dependent parental strain, agar was supplemented with 0.02% uridine. Five microliters of drug solution or solvent control were spotted onto sterile Whatman paper disks on the top agar. […]

The target in the next experiment is T1, Pdr5p ATPase (Saccharomyces cerevisiae, UniProt P33302).
T1 construct: plasma membranes from the AD124567 yeast strain overexpressing Pdr5p; endogenous in cells; host or cells: S. cerevisiae AD124567 (pdr1-3, PDR5 intact), plasma membrane fraction
As to the kind of experiment: Oligomycin sensitive ATPase activity of AD124567 plasma membranes. Format: biochemical, S. cerevisiae. Conditions: in vitro. The protocol: (A) Inhibition profiles of oligomycin-sensitive Pdr5p ATPase activity by the purified peptides D-NH2-asparagine-tryptophan-tryptophan-lysine-valine-arginine-arginine-arginine-CONH2 (KN0) and its singly substituted Mtr-derivative KN20. (B) Inhibition profile with KN20 on the oligomycin-sensitive Cdr1p ATPase activity of plasma membranes from AD1002 minus the oligomycin-sensitive ATPase activity of plasma membranes from the isogenic AD1-8u^− strain.
Yeast were grown in YEPD, pH 5.5 at 30° C. until they reached late-exponential phase of growth (OD600 nm=7), washed twice in ice-cold distilled water, and incubated on ice for 30 min to minimize glucose-stimulated Pma1p activity. Cells were resuspended in homogenising medium (50 mM Tris pH 7.5, 2 mM EDTA and 1 mM phenylmethylsulfonyl fluoride) and disrupted using a Braun Homogeniser. Cell debris and unbroken cells were removed by centrifuging at 2,000×g at 4° C. for 10 min. A crude membrane fraction was isolated from the cell-free supernatant by centrifuging at 30,000×g at 4° C. for 45 min. Plasma membranes were prepared by centrifugation of the supernatant obtained after selective precipitation of mitochondria at pH 5.2 as described previously (Goffeau, A. and Dufour, J. P., 1988). […] Protein was determined using a micro-Bradford (Bio-Rad Laboratories, Hercules, Calif. [Bradford, M. M., 1976]) assay with gamma-globulin as standard. Nucleotide triphosphatase activity was measured by incubating the plasma membrane fractions (10 μg) at 30° C. in a final volume of 120 μl containing 6 mM NTP, 7 mM MgSO4 in 59 mM MES-Tris buffer pH 6.0-8.0. […] Other ATPase inhibitors (20 μM oligomycin, 20 μM aurovertin B or 100 μM vanadate were added to the reaction where indicated. After 30 min the reaction was stopped by adding 130 μl of a solution containing 1% (w/v) SDS, 0.6 M H2SO4, 1.2% (w/v) ammonium molybdate and 1.6% (w/v) ascorbic acid. Inorganic phosphate released from NTPs was measured at 750 nm after 10 min incubation at room temperature.

For a further experiment, the system named is AD1002. Kind of experiment: Disk drug susceptibility assay of chemosensitisation to fluconazole. Format: cell-based, S. cerevisiae. The conditions noted are these: 5 μg/ml fluconazole, 12 nanomole peptide on disk. Here is the method:
(A) Checkerboard drug susceptibility assay of AD1002. This assay was conducted as described in Materials and methods in the presence of the indicated concentrations of fluconazole and KN20. (B) Disk drug susceptibility assay of AD1002. This assay was conducted, as described in Materials and methods for Example 4, in the absence or presence of 5 μg/ml fluconazole, with (1) KN0 (12 nanomole), (2) KN20 (12 nanomole) or (0) control amounts of DMSO applied to the disks. (C) Checkerboard drug susceptibility assay of ATCC 10261. This assay was conducted, as described in Material and methods for Example 4, in the presence of the indicated concentrations of fluconazole and KN20. D indicates cell death as measured by a failure to recover any colony forming units when samples from microtitre plate wells were cultured on solid YPD medium.
as §2

≈ marks a conversion by molar mass, not a printed value.

T1 sequence (P33302 whole entry): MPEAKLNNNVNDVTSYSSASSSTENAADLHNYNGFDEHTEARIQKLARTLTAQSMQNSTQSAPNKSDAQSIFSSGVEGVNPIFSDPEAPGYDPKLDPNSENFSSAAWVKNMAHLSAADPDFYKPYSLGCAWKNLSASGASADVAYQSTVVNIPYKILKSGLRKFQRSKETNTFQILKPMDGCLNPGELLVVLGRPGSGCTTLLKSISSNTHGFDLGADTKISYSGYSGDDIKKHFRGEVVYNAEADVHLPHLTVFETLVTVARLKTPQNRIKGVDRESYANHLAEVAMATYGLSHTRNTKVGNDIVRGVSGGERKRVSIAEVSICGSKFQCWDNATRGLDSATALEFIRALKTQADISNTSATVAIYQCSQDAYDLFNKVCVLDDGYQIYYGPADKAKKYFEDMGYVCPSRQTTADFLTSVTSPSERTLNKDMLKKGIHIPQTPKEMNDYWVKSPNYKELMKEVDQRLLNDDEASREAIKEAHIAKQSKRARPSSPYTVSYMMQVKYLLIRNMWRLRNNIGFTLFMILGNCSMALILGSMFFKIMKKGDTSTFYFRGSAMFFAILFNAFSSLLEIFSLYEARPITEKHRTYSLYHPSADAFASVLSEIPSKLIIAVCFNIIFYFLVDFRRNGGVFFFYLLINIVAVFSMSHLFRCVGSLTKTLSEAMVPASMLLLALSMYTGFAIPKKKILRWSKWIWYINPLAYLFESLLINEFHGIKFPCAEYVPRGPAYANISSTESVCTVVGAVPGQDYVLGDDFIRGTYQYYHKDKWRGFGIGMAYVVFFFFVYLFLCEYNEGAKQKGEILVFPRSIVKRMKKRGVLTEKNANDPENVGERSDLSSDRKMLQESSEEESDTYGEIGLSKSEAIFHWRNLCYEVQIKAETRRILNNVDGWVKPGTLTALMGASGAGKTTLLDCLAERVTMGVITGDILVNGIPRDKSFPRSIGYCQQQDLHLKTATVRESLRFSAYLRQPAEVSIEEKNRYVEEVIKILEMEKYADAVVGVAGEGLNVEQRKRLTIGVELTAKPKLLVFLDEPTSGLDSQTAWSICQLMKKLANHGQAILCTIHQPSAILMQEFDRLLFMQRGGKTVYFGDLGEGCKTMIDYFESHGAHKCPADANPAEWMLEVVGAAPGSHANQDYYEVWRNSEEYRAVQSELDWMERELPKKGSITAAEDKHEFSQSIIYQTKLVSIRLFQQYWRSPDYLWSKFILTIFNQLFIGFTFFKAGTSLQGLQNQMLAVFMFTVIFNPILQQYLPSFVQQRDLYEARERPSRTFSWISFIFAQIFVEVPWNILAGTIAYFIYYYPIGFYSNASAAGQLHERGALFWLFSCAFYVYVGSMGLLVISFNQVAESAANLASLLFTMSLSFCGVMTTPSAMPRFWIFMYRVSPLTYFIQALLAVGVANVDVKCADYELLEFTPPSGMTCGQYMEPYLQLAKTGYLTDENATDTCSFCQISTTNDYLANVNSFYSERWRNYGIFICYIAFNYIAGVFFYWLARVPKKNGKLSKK

For orientation: MIC80 means an inhibitory concentration at the 80% level, which refers to growth in some studies and to a panel of isolates in others. In the case of `CCC(C)n1ncn(-c2ccc(N3CCN(c4ccc(OCC5COC(Cn6cncn6)(c6ccc(Cl)cc6Cl)O5)cc4)CC3)cc2)c1=O` (centres unmarked) [itraconazole], the figures for the MIC80 (with S. cerevisiae AD1-8u^−; in experiment [1]; against S. cerevisiae AD1-8/CDR2) were under 0.016 µg/mL, 4 µg/mL (≈ 5.67 µM) and 1 µg/mL (≈ 1.42 µM), respectively. Besides, the “fold increase in MIC” value in experiment [1] is recorded as over 250 fold.

For the compound `CC(=O)N1CCN(c2ccc(OCC3COC(Cn4ccnc4)(c4ccc(Cl)cc4Cl)O3)cc2)CC1` (centres unmarked) [ketoconazole], the results for the MIC80 (in the experiment on S. cerevisiae AD1-8u^−; in experiment [1]; in the experiment on S. cerevisiae AD1-8/CDR2) were under 0.016 µg/mL, 0.5 µg/mL (≈ 0.941 µM) and 2 µg/mL (≈ 3.76 µM), respectively. The “fold increase in MIC” value in experiment [1] is on record as over 31 fold.

Take “D-NH2-asparagine-tryptophan-tryptophan-lysine-valine-arginine-arginine-arginine-CONH2 [KN0]”: the “chemosensitisation to fluconazole in disk assay” value (in experiment [2]; with AD1002) was “ineffective at chemosensitisation” in each case. The “effect on oligomycin sensitive Pdr5p ATPase activity” value on Pdr5p ATPase is “ineffective”.
